Test results reported in ChEMBL document CHEMBL4177767, “Discovery of N2-(4-Amino-cyclohexyl)-9-cyclopentyl- N6-(4-morpholin-4-ylmethyl-phenyl)- 9H-purine-2,6-diamine as a Potent FLT3 Kinase Inhibitor for Acute Myeloid Leukemia with FLT3 Mutations” (J Med Chem, 2018).

What was measured:
[1] = system: Kasumi 1; test: cells; settings: Homo sapiens, Kasumi 1, 72 h
[2] = system: K562; test: cells; settings: Homo sapiens, K562, 72 h
[3] = in vitro; settings: human, MRC5 cells
[4] = system: MOLM-13; test: cells; settings: Homo sapiens, MOLM-13, 72 h
[5] = in vitro; settings: human, HUVEC
[6] = system: THP-1; test: cells; settings: Homo sapiens, THP-1, 72 h
[7] = system: U-937; test: cells; settings: Homo sapiens, U-937, 72 h
[8] = biological target: T1, Receptor-type tyrosine-protein kinase FLT3 (Homo sapiens, UniProt P36888); test: biochemical; type: cell-based, Sf9
T1 sequence (P36888 whole entry): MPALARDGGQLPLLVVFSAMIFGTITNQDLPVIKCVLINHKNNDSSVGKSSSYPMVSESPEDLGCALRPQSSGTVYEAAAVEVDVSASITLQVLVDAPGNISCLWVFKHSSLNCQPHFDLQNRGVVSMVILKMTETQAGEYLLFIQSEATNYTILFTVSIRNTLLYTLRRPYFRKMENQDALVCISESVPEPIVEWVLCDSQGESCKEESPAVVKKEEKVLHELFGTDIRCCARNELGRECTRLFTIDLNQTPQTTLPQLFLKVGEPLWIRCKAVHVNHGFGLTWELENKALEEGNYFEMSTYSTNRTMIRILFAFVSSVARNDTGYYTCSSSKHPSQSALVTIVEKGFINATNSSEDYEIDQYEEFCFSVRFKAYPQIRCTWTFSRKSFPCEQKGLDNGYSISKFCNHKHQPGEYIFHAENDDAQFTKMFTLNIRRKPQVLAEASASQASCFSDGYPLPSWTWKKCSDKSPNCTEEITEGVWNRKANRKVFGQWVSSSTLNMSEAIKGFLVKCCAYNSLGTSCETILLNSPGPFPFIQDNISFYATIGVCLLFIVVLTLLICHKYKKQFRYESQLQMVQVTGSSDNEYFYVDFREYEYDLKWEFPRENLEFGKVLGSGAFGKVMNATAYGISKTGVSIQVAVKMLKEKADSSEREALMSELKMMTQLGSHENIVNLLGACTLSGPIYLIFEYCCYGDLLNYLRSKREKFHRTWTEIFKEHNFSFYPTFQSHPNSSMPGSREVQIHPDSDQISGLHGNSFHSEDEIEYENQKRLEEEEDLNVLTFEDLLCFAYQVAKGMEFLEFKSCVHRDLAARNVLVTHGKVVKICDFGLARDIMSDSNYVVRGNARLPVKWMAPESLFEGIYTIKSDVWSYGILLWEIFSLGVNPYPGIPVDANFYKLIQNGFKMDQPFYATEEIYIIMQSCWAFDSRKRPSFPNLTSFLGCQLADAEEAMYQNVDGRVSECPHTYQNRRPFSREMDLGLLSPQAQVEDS
Description: Inhibition of N-terminal GST/His6-fused recombinant wild type human FLT3 (R571 to S993 residues) expressed in Sf9 insect cells using poly (Ala,Glu,Lys,Tyr) 6:2:5:1 hydrobromide as substrate in presence of [gamma-33P]ATP

[9] = system: MV4-11; test: Growth inhibition of human MV4-11 cells after 72 hrs by calcein AM dye-based fluorescence assay; type: functional; settings: MV4-11, 72 h
[10] = biological target: Receptor-type tyrosine-protein kinase FLT3 (Homo sapiens, UniProt P36888, ITD); test: biochemical; type: cell-based, Sf9
Description: Inhibition of N-terminal GST/His6-fused recombinant human FLT3 (R571 to S993 residues) ITD mutant expressed in Sf9 insect cells using poly (Ala,Glu,Lys,Tyr) 6:2:5:1 hydrobromide as substrate in presence of [gamma-33P]ATP

[11] = in vitro; settings: human, BJ cells
[12] = system: HCC827; test: cells; settings: Homo sapiens, HCC827, 72 h
[13] = biological target: Receptor-type tyrosine-protein kinase FLT3 (Homo sapiens, UniProt P36888, D835Y); test: biochemical; type: cell-based, Sf9
Description: Inhibition of N-terminal GST/His6-fused recombinant human FLT3 (R571 to S993 residues) D835Y mutant expressed in Sf9 insect cells using poly (Ala,Glu,Lys,Tyr) 6:2:5:1 hydrobromide as substrate in presence of [gamma-33P]ATP

[14] = system: MCF7; test: cells; settings: Homo sapiens, MCF7, 72 h

| Compound | GI50 [1] [nM] | GI50 [2] [nM] | GI50 at 72 h [3] [µM] | GI50 [4] [nM] | GI50 at 72 h [5] [µM] | GI50 [6] [nM] | GI50 [7] [nM] | IC50 [8] [nM] | GI50 [9] [nM] | IC50 [10] [nM] | GI50 at 72 h [11] [µM] | GI50 [12] [nM] | IC50 [13] [nM] | GI50 [14] [nM] |
| --- | --- | --- | --- | --- | --- | --- | --- | --- | --- | --- | --- | --- | --- | --- |
| N[C@H]1CC[C@H](Nc2nc(Nc3ccc(N4CC5(COC5)C4)cc3)c3ncn(C4CCCC4)c3n2)CC1 | 734 | 1220 | 9.8 | 4 | 5.95 | 693 | 638 | 13 | 3 | 4 | 14.6 | 456 | 28 | 1060 |
| N[C@H]1CC[C@H](Nc2nc(Nc3ccc(N4CCOCC4)cc3)c3ncn(C4CCCC4)c3n2)CC1 | 816 | 965 | 23.3 | 4 | 4.53 | 1160 | 1570 | 21 | 2 | 2 | 12.2 | 521 | 7 | 320 |
| N[C@H]1CC[C@H](Nc2nc(Nc3ccc(N4CCCC4)cc3)c3ncn(C4CCCC4)c3n2)CC1 | 569 | 940 | 14 | 24 | 12.1 | 3110 | 3170 | 21 | 18 | 3 | 15.9 | 1070 | 11 | 487 |
| N[C@H]1CC[C@H](Nc2nc(Nc3ccc(Br)cc3)c3ncn(C4CCCC4)c3n2)CC1 | 481 | 670 | 20.6 | 15 | 10.1 | 2280 | 1800 | 16 | 10 | 4 | 14.7 | 1280 | 4 | 520 |
| CCN1CCN(c2ccc(Nc3nc(N[C@H]4CC[C@H](N)CC4)nc4c3ncn4C3CCCC3)cc2)CC1 | 839 | 2070 | 22 | 4 | 4.44 | 514 | 605 | 10 | 1 | 3 | 12.9 | 592 | 2 | 1050 |
| c1ccc(CNc2nc(Nc3ccc(CN4CCOCC4)cc3)c3ncn(C4CCCC4)c3n2)cc1 | 4760 | 3600 | 23.9 | 122 | 10.1 | > 10000 | 9790 | 83 | 196 | 26 | > 25 | > 5000 | 624 | 8600 |
